Data from patent US20120029187A1, “HALOALKYLSULFONANILIDE DERIVATIVE” (Nissan Chemical Industries, Ltd., priority 2009, published 2012).

Assays:
Type in all cases: in vivo
barnyardgrass [1] = experiment: Test Example 1: herbicidal effects in preemergence treatment under submerged conditions; conditions: dose 2.52 g/a
Procedure, shortened: (§1)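 Flooded-paddy preemergence assay; EC diluted with water, surface-applied at weed seeding; doses g/a; rice transplanted at 2.5 leaves; 0–5 mortality score after 3 weeks.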

bulrush [2] = experiment: as above; conditions: dose 2.52 g/a
Procedure, shortened: as §1

ducksalad [3] = experiment: as above; conditions: dose 2.52 g/a
Procedure, shortened: as §1

transplanted rice = experiment: Test Example 1: preemergence treatment under submerged conditions, effect on crop; conditions: dose 2.52 g/a
Procedure, shortened: as §1

barnyardgrass [4] = experiment: Test Example 2: herbicidal effects during the vegetation period under submerged conditions; conditions: treatment during the vegetation period under submerged conditions; dose 2.52 g/a
Procedure, shortened: (§2)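 Barnyardgrass, bulrush and ducksalad were co-sown in alluvial soil flooded to 4 cm and grown in a greenhouse at 25 to 30° C. At the 1- or 2-leaf stage, water-diluted emulsifiable concentrates went onto the water surface at set doses (g/a). Herbicidal effect was scored three weeks later on a graded scale.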

bulrush [5] = experiment: as above; conditions: treatment during the vegetation period under submerged conditions; dose 2.52 g/a
Procedure, shortened: as §2

ducksalad [6] = experiment: as above; conditions: treatment during the vegetation period under submerged conditions; dose 2.52 g/a
Procedure, shortened: as §2

Italian ryegrass [7] = experiment: Test Example 3: herbicidal effects in soil treatment; conditions: dose 3.2 g/a
Procedure, shortened: (§3)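 Seeds were sown in sterilized diluvial soil and covered with about 1.5 cm of soil. Compounds, formulated as emulsifiable concentrates and diluted with water, were sprayed evenly over the soil surface at set doses in g/a. Herbicidal effect was scored on a rating scale three weeks later.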

barnyardgrass [8] = experiment: as above; conditions: dose 3.2 g/a
Procedure, shortened: as §3

beadstraw [9] = experiment: as above; conditions: dose 3.2 g/a
Procedure, shortened: as §3

common chickweed [10] = experiment: as above; conditions: dose 3.2 g/a
Procedure, shortened: as §3

common lambsquater [11] = experiment: as above; conditions: dose 3.2 g/a
Procedure, shortened: as §3

common ragweed [12] = experiment: as above; conditions: dose 3.2 g/a
Procedure, shortened: as §3

giant foxtail [13] = experiment: as above; conditions: dose 3.2 g/a
Procedure, shortened: as §3

large crabgrass [14] = experiment: as above; conditions: dose 3.2 g/a
Procedure, shortened: as §3

posumbu knotweed [15] = experiment: as above; conditions: dose 3.2 g/a
Procedure, shortened: as §3

redroot pigweed [16] = experiment: as above; conditions: dose 3.2 g/a
Procedure, shortened: as §3

velvetleaf [17] = experiment: as above; conditions: dose 3.2 g/a
Procedure, shortened: as §3

water foxtail [18] = experiment: as above; conditions: dose 3.2 g/a
Procedure, shortened: as §3

Italian ryegrass [19] = experiment: Test Example 4: herbicidal effect in foliage treatment; conditions: dose 3.2 g/a, three weeks after application
Procedure, shortened: (§4)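 Visual herbicidal scores on a graded scale were recorded three weeks after foliar application. Compounds went on as diluted emulsifiable concentrates at predetermined g/a to plants grown 14 days in a 25 to 30° C greenhouse.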

barnyardgrass [20] = experiment: as above; conditions: dose 3.2 g/a, three weeks after application
Procedure, shortened: as §4

beadstraw [21] = experiment: as above; conditions: dose 3.2 g/a, three weeks after application
Procedure, shortened: as §4

common chickweed [22] = experiment: as above; conditions: dose 3.2 g/a, three weeks after application
Procedure, shortened: as §4

common lambsquater [23] = experiment: as above; conditions: dose 3.2 g/a, three weeks after application
Procedure, shortened: as §4

common ragweed [24] = experiment: as above; conditions: dose 3.2 g/a, three weeks after application
Procedure, shortened: as §4

giant foxtail [25] = experiment: as above; conditions: dose 3.2 g/a, three weeks after application
Procedure, shortened: as §4

large crabgrass [26] = experiment: as above; conditions: dose 3.2 g/a, three weeks after application
Procedure, shortened: as §4

posumbu knotweed [27] = experiment: as above; conditions: dose 3.2 g/a, three weeks after application
Procedure, shortened: as §4

redroot pigweed [28] = experiment: as above; conditions: dose 3.2 g/a, three weeks after application
Procedure, shortened: as §4

velvetleaf [29] = experiment: as above; conditions: dose 3.2 g/a, three weeks after application
Procedure, shortened: as §4

water foxtail [30] = experiment: as above; conditions: dose 3.2 g/a, three weeks after application
Procedure, shortened: as §4

## Cn1nc(Cl)cc1C1(C)CC(=O)N(Cc2ccccc2NS(=O)(=O)C(F)(F)F)CO1 (centres unmarked) [II-59]
Barnyardgrass [1]
  A: barnyardgrass, herbicidal effect (evaluation scale 0-5): 5 (mortality of 90% or above (nearly complete death))
Bulrush [2]
  B: bulrush, herbicidal effect (evaluation scale 0-5): 5 (mortality of 90% or above (nearly complete death))
Ducksalad [3]
  C: ducksalad, herbicidal effect (evaluation scale 0-5): 5 (mortality of 90% or above (nearly complete death))
Transplanted rice
  a: transplanted rice, effect on crop (evaluation scale 0-5): 0 (mortality of less than 5% (almost ineffective))
Barnyardgrass [4]
  A: barnyardgrass, herbicidal effect (evaluation scale 0-5): 5 (mortality of 90% or above (nearly complete death))
Bulrush [5]
  B: bulrush, herbicidal effect (evaluation scale 0-5): 5 (mortality of 90% or above (nearly complete death))
Ducksalad [6]
  C: ducksalad, herbicidal effect (evaluation scale 0-5): 5 (mortality of 90% or above (nearly complete death))
Italian ryegrass [7]
  H: Italian ryegrass, herbicidal effect (evaluation scale 0-5): 5 (mortality of 90% or above (nearly complete death))
Barnyardgrass [8]
  A: barnyardgrass, herbicidal effect (evaluation scale 0-5): 4 (mortality of at least 70% and less than 90%)
Beadstraw [9]
  O: beadstraw, herbicidal effect (evaluation scale 0-5): 1 (mortality of at least 5% and less than 20%)
Common chickweed [10]
  N: common chickweed, herbicidal effect (evaluation scale 0-5): 4 (mortality of at least 70% and less than 90%)
Common lambsquater [11]
  L: common lambsquater, herbicidal effect (evaluation scale 0-5): 0 (mortality of less than 5% (almost ineffective))
Common ragweed [12]
  J: common ragweed, herbicidal effect (evaluation scale 0-5): 3 (mortality of at least 40% and less than 70%)
Giant foxtail [13]
  E: giant foxtail, herbicidal effect (evaluation scale 0-5): 4 (mortality of at least 70% and less than 90%)
Large crabgrass [14]
  D: large crabgrass, herbicidal effect (evaluation scale 0-5): 1 (mortality of at least 5% and less than 20%)
Posumbu knotweed [15]
  M: posumbu knotweed, herbicidal effect (evaluation scale 0-5): 1 (mortality of at least 5% and less than 20%)
Redroot pigweed [16]
  K: redroot pigweed, herbicidal effect (evaluation scale 0-5): 3 (mortality of at least 40% and less than 70%)
Velvetleaf [17]
  I: velvetleaf, herbicidal effect (evaluation scale 0-5): 1 (mortality of at least 5% and less than 20%)
Water foxtail [18]
  G: water foxtail, herbicidal effect (evaluation scale 0-5): 0 (mortality of less than 5% (almost ineffective))
Italian ryegrass [19]
  H: Italian ryegrass, herbicidal effect: 1 (mortality of at least 5% and less than 20%)
Barnyardgrass [20]
  A: barnyardgrass, herbicidal effect: 5 (mortality of 90% or above (nearly complete death))
Beadstraw [21]
  O: beadstraw, herbicidal effect: 5 (mortality of 90% or above (nearly complete death))
Common chickweed [22]
  N: common chickweed, herbicidal effect: 4 (mortality of at least 70% and less than 90%)
Common lambsquater [23]
  L: common lambsquater, herbicidal effect: 1 (mortality of at least 5% and less than 20%)
Common ragweed [24]
  J: common ragweed, herbicidal effect: 4 (mortality of at least 70% and less than 90%)
Giant foxtail [25]
  E: giant foxtail, herbicidal effect: 1 (mortality of at least 5% and less than 20%)
Large crabgrass [26]
  D: large crabgrass, herbicidal effect: 3 (mortality of at least 40% and less than 70%)
Posumbu knotweed [27]
  M: posumbu knotweed, herbicidal effect: 1 (mortality of at least 5% and less than 20%)
Redroot pigweed [28]
  K: redroot pigweed, herbicidal effect: 0 (mortality of less than 5% (almost ineffective))
Velvetleaf [29]
  I: velvetleaf, herbicidal effect: 2 (mortality of at least 20% and less than 40%)
Water foxtail [30]
  G: water foxtail, herbicidal effect: 5 (mortality of 90% or above (nearly complete death))

## CCOC(=O)N(c1ccccc1CN1COC(C)(c2cc(Cl)nn2C)CC1=O)S(=O)(=O)C(F)(F)F (centres unmarked) [II-60]
Barnyardgrass [1]
  A: barnyardgrass, herbicidal effect (evaluation scale 0-5): 5 (mortality of 90% or above (nearly complete death))
Bulrush [2]
  B: bulrush, herbicidal effect (evaluation scale 0-5): 5 (mortality of 90% or above (nearly complete death))
Ducksalad [3]
  C: ducksalad, herbicidal effect (evaluation scale 0-5): 5 (mortality of 90% or above (nearly complete death))
Transplanted rice
  a: transplanted rice, effect on crop (evaluation scale 0-5): 0 (mortality of less than 5% (almost ineffective))
Barnyardgrass [4]
  A: barnyardgrass, herbicidal effect (evaluation scale 0-5): 5 (mortality of 90% or above (nearly complete death))
Bulrush [5]
  B: bulrush, herbicidal effect (evaluation scale 0-5): 5 (mortality of 90% or above (nearly complete death))
Ducksalad [6]
  C: ducksalad, herbicidal effect (evaluation scale 0-5): 5 (mortality of 90% or above (nearly complete death))
Italian ryegrass [7]
  H: Italian ryegrass, herbicidal effect (evaluation scale 0-5): 3 (mortality of at least 40% and less than 70%)
Barnyardgrass [8]
  A: barnyardgrass, herbicidal effect (evaluation scale 0-5): 5 (mortality of 90% or above (nearly complete death))
Beadstraw [9]
  O: beadstraw, herbicidal effect (evaluation scale 0-5): 0 (mortality of less than 5% (almost ineffective))
Common chickweed [10]
  N: common chickweed, herbicidal effect (evaluation scale 0-5): 4 (mortality of at least 70% and less than 90%)
Common lambsquater [11]
  L: common lambsquater, herbicidal effect (evaluation scale 0-5): 1 (mortality of at least 5% and less than 20%)
Common ragweed [12]
  J: common ragweed, herbicidal effect (evaluation scale 0-5): 1 (mortality of at least 5% and less than 20%)
Giant foxtail [13]
  E: giant foxtail, herbicidal effect (evaluation scale 0-5): 5 (mortality of 90% or above (nearly complete death))
Large crabgrass [14]
  D: large crabgrass, herbicidal effect (evaluation scale 0-5): 4 (mortality of at least 70% and less than 90%)
Posumbu knotweed [15]
  M: posumbu knotweed, herbicidal effect (evaluation scale 0-5): 3 (mortality of at least 40% and less than 70%)
Redroot pigweed [16]
  K: redroot pigweed, herbicidal effect (evaluation scale 0-5): 4 (mortality of at least 70% and less than 90%)
Velvetleaf [17]
  I: velvetleaf, herbicidal effect (evaluation scale 0-5): 4 (mortality of at least 70% and less than 90%)
Water foxtail [18]
  G: water foxtail, herbicidal effect (evaluation scale 0-5): 5 (mortality of 90% or above (nearly complete death))
Italian ryegrass [19]
  H: Italian ryegrass, herbicidal effect: 3 (mortality of at least 40% and less than 70%)
Barnyardgrass [20]
  A: barnyardgrass, herbicidal effect: 4 (mortality of at least 70% and less than 90%)
Beadstraw [21]
  O: beadstraw, herbicidal effect: 4 (mortality of at least 70% and less than 90%)
Common chickweed [22]
  N: common chickweed, herbicidal effect: 4 (mortality of at least 70% and less than 90%)
Common lambsquater [23]
  L: common lambsquater, herbicidal effect: 2 (mortality of at least 20% and less than 40%)
Common ragweed [24]
  J: common ragweed, herbicidal effect: 3 (mortality of at least 40% and less than 70%)
Giant foxtail [25]
  E: giant foxtail, herbicidal effect: 3 (mortality of at least 40% and less than 70%)
Large crabgrass [26]
  D: large crabgrass, herbicidal effect: 3 (mortality of at least 40% and less than 70%)
Posumbu knotweed [27]
  M: posumbu knotweed, herbicidal effect: 2 (mortality of at least 20% and less than 40%)
Redroot pigweed [28]
  K: redroot pigweed, herbicidal effect: 0 (mortality of less than 5% (almost ineffective))
Velvetleaf [29]
  I: velvetleaf, herbicidal effect: 3 (mortality of at least 40% and less than 70%)
Water foxtail [30]
  G: water foxtail, herbicidal effect: 5 (mortality of 90% or above (nearly complete death))
